In one test the test system is STZ mice. Kind of test: STZ diabetic mouse model, intraocular dosing. The test is classed as in vivo. To be noted: single intraocular injection 70 ng, 5 days. As for the experimental part: The efficacy of 32-134D following intraocular administration with 70 ng, as well as a lower dose (14 ng), in OIR mice at P12 (J. Zhang et al., J Clin Invest 131 (2021)) was determined.
The efficacy of 32-134D following IVT administration was also evaluated in the STZ model. STZ mice that were hyperglycemic for 6 months were treated with a single intraocular injection with 70 ng 32-134D in 1 ul or with vehicle (DMSO) control. 5 days later vascular hyperpermeability was assessed by examining leakage of intravascular Evans blue dye in STZ mice.
Vascular permeability by Evans blue tracer method: Mice were anesthetized with a mixture of ketamine (50 mg/kg) and xylazine (5 mg/kg) and subjected to Evans blue (Sigma) (50 mg/kg) perfusion by penile vein injection. […] Images were captured by Zeiss fluorescent microscope or confocal microscopy and fluorescence quantified by image J software (NIH). […] Blinded quantification of the number of leaking vessels was performed by manual counting major leakage from capillaries from retinas of each group. Non-capillary artifactual Evans blue or FITC-dextran leakage due to flat mount processing as well as minor leakages were not included in the quantitation. […] Random fields were chosen from retinas where leakages were absent to determine baseline fluorescence that arise from capillaries. For quantification, high magnifications (20×) images were taken. […]

In test [1] the test system is HIF-regulated vasoactive mediators. The experiment in a line: mRNA expression in hypoxic D120 hiPSC-derived retinal organoids. The class given is cell-based, human. To be noted: 1% O2, 12 hours. As for the experimental part:
To assess the therapeutic potential of 32-134D for diabetic patients, human induced pluripotent stem cell (hiPSC)-derived 3-dimensional (3D) retinal organoids were treated with 32-134D. It has been previously reported that hiPSC-derived 3D retinal organoids cultured under hypoxic conditions (1% O2) behave similar to ischemic human retinal tissue with increased accumulation of both HIF-1α and HIF-2α (J. Zhang et al., J Clin Invest 131 (2021)). By 120 days of differentiation (D120), the inner and outer retinal layers are clearly defined (FIGS. 32A and 32B) and contain the precursors of the major retinal cell types, including outer retina photoreceptors (expressing recoverin), few newly differentiating bipolar cell precursors (lacking expression of recoverin and Pax6), amacrine cells (expressing high levels of Pax6), as well as Müller cells (expressing CRALBP; FIGS. 32C and 32D). […]
Reverse transcription and quantitative real-time PCR: Total RNA was isolated from cultured cells or retinas with PureLink™ RNA Mini Kit (Invitrogen #12183025), and cDNA was prepared with MuLV Reverse Transcriptase (Applied Biosystems). Quantitative real-time PCR was performed with Power SYBR Green PCR Master Mix (Applied Biosystems) and MyiQ Real-Time PCR Detection System (Bio-Rad). […]

A further test has as its target T1, HIF-1α (Homo sapiens, UniProt Q16665).
T1 construct: endogenous in cells; host or cells: MIO-M1 (immortalized human Müller glial cell line), hypoxia
The experiment in a line: Immunoblot of HIF-1α accumulation in hypoxic MIO-M1 cells. The class given is cell-based. As for the experimental part:
It has previously been reported that the cells in the inner nuclear layer of the retina that express VEGF in response to hypoxia/ischemia are Müller glial cells (X. Xin et al., Proc Natl Acad Sci USA 110, E3425-3434 (2013)). […] The effects of 32-134D on HIF-1α accumulation persisted up to 16 hours after treatment of cultured cells (FIG. 27B).
Pharmacokinetic analysis of 32-134D in the neurosensory retina following intraocular administration was determined by liquid chromatography and tandem mass spectrometry (LC-MS/MS) to quantify the concentration of 32-134D in retinal tissue over 14 days following a single 70-ng intraocular injection of 32-134D (see Methods of all parameters). […] The total exposure (area under the curve or AUClast) was 72.3 nmol*day/g.
Cells culture and reagents: MIO-M1 cells were a gift from Dr. Astrid Limb (University College London, Institute of Ophthalmology, London, United Kingdom). MIO-M1 and HUVEC cells were cultured in DMEM with 10% (vol/vol) FBS (Quality Biological) and 1% penicillin/streptomycin (Cellgro). Hypoxia chambers were used to expose cells. Evans Blue (E2129) was purchased from Sigma-Aldrich.
Immunoblot assays and ELISAs: Cell, neurosensory retina, and D120 retinal organoid lysates were subjected to 4-15% gradient SDS/PAGE (Invitrogen). […]
For orientation: In western blotting, separated proteins are transferred to a membrane and probed.

“Also recorded” adds a separate entry of the source.

T1 sequence (Q16665 whole entry): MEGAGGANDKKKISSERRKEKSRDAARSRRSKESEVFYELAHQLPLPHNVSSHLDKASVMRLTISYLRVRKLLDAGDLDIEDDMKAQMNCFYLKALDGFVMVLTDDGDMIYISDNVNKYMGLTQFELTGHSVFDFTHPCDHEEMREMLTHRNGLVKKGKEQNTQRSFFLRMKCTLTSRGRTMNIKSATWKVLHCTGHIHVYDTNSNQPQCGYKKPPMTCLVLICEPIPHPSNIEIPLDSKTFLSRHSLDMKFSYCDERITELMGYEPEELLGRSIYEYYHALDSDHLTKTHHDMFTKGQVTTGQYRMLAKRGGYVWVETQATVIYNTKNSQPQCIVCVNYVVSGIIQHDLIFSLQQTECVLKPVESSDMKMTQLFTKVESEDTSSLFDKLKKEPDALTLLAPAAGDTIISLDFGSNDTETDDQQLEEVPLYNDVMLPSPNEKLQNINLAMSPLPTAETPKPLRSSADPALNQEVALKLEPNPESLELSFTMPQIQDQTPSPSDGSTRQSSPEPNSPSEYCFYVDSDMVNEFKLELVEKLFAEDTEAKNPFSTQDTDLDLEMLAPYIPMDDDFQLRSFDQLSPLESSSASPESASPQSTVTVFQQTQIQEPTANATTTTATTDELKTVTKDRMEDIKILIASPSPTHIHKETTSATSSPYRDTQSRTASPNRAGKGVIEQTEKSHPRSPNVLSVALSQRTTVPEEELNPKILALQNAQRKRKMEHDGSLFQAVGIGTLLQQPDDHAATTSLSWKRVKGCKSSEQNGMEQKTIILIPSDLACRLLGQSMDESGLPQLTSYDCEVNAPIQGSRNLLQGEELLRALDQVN

The IC50 is the concentration that gives 50% inhibition. Regarding `Brc1ccc2c(-c3csc(-c4c[nH]c5c(Br)cccc45)n3)c[nH]c2c1` [Compound 32-134D, 4-(6-bromo-1H-indol-3-yl)-2-(7-bromo-1H-indol-3-yl)thiazole], the “vascular hyperpermeability (Evans blue leakage)” value in the test with STZ mice was “effectively inhibited; also recorded: significant decrease”. Besides, the “expression of HIF-regulated vasoactive mediators (Vegf, Angpt14 mRNA)” value in test [1] is reported as “effectively prevented”. Also, the “persistence of effect on HIF-1α accumulation after treatment” value at HIF-1α (10 μM) was “up to 16 hours”. The IC50 at HIF-1α (hypoxia 4 hours, quantitation of immunoblots, read-out: IC50 of HIF-1α protein accumulation) turned out to be 3.5 µM.

The values are drawn from patent publication US20250115595A1, “INHIBITORS OF HYPOXIA-INDUCIBLE FACTORS” (The Johns Hopkins University, priority 2021, published 2025).
